Experimental data as given in PMC11240139, “Exploring the antitumor potential of novel quinoline derivatives via tubulin polymerization inhibition in breast cancer; design, synthesis and molecular docking” (RSC Advances, 2024).

Legend:
Test in all cases: NCI-60 SRB cytotoxicity screen
Assay type in all cases: cell-based
CCRF-CEM (leukemia) = conditions: Homo sapiens, single dose 10 μM, read-out: growth inhibition (GI%)
HL-60(TB) (leukemia) = conditions: Homo sapiens, single dose 10 μM, read-out: growth inhibition (GI%)
K-562 (leukemia) = conditions: Homo sapiens; K-652 [sic], single dose 10 μM; read-out: growth inhibition (GI%)
[1] = system: A549/ATCC (non-small cell lung cancer); conditions: Homo sapiens, single dose 10 μM, read-out: growth inhibition (GI%)
[2] = system: HOP-62 (non-small cell lung cancer); conditions: Homo sapiens; HOP-62, single dose 10 μM; read-out: growth inhibition (GI%)
[3] = system: NCI-H23 (non-small cell lung cancer); conditions: Homo sapiens; NCI-H23, single dose 10 μM; read-out: growth inhibition (GI%)
[4] = system: NCI-H322M (non-small cell lung cancer); conditions: Homo sapiens, single dose 10 μM, read-out: growth inhibition (GI%)
[5] = system: NCI-H460 (non-small cell lung cancer); conditions: Homo sapiens; NCI-H460, single dose 10 μM; read-out: growth inhibition (GI%)
[6] = system: NCI-H522 (non-small cell lung cancer); conditions: Homo sapiens; NCI-H522, single dose 10 μM; read-out: growth inhibition (GI%)
HCT-15 (colon cancer) = conditions: Homo sapiens; HCT-15, single dose 10 μM; read-out: growth inhibition (GI%)
SF-268 (CNS cancer) = conditions: Homo sapiens; SF-268, single dose 10 μM; read-out: growth inhibition (GI%)
SF-539 (CNS cancer) = conditions: Homo sapiens; SF-539, single dose 10 μM; read-out: growth inhibition (GI%)
SNB-19 (CNS cancer) = conditions: Homo sapiens; SNB-19, single dose 10 μM; read-out: growth inhibition (GI%)
U251 (CNS cancer) = conditions: Homo sapiens, U-251; U251, single dose 10 μM; read-out: growth inhibition (GI%)
MDA-MB-435 (melanoma) = conditions: Homo sapiens, MDA-MB-435, read-out: growth inhibition (GI%)
SK-MEL-2 (melanoma) = conditions: Homo sapiens; SK-MEL-2, single dose 10 μM; read-out: growth inhibition (GI%)
SK-MEL-5 (melanoma) = conditions: Homo sapiens; SK-MEL-5, single dose 10 μM; read-out: growth inhibition (GI%)
UACC-62 (melanoma) = conditions: Homo sapiens; UACC-62, single dose 10 μM; read-out: growth inhibition (GI%)
OVCAR-4 (ovarian cancer) = conditions: Homo sapiens; OVCAR-4, single dose 10 μM; read-out: growth inhibition (GI%)
OVCAR-5 (ovarian cancer) = conditions: Homo sapiens; OVCAR-5, single dose 10 μM; read-out: growth inhibition (GI%)
OVCAR-8 (ovarian cancer) = conditions: Homo sapiens; OVCAR-8, single dose 10 μM; read-out: growth inhibition (GI%)
SK-OV-3 (ovarian cancer) = conditions: Homo sapiens; SK-OV-3, single dose 10 μM; read-out: growth inhibition (GI%)
ACHN (renal cancer) = conditions: Homo sapiens, single dose 10 μM, read-out: growth inhibition (GI%)
RXF 393 (renal cancer) = conditions: Homo sapiens; RXF 393, single dose 10 μM; read-out: growth inhibition (GI%)
UO-31 (renal cancer) = conditions: Homo sapiens; UO-31, single dose 10 μM; read-out: growth inhibition (GI%)
MCF7 (breast cancer) = conditions: Homo sapiens; MCF7, single dose 10 μM; read-out: growth inhibition (GI%)
HS 578T (breast cancer) = conditions: Homo sapiens, single dose 10 μM, read-out: growth inhibition (GI%)
BT-549 (breast cancer) = conditions: Homo sapiens; BT-549, single dose 10 μM; read-out: growth inhibition (GI%)
T-47D (breast cancer) = conditions: Homo sapiens, T47D, single dose 10 μM, read-out: growth inhibition (GI%)
[7] = system: MDA-MB-468 (breast cancer); conditions: Homo sapiens; MDA-MB-468, single dose 10 μM; read-out: growth inhibition (GI%)
Experimental: The cytotoxic activity of the synthesized quinoline derivatives was determined by the national cancer institute (NCI, Bethesda, Maryland, USA) against 60 different cancer cell lines at a single high dose (10^−5 M) in the full NCI 60 cell panel using the sulforhodamine B assay for cell viability evaluation. In summary, 5 × 10^3 cells were in 96-well plate and incubated in complete media for 24 h. Cells were treated with 100 μL of media containing each newly synthesized compound. After drug exposure, cells were fixed by replacing media with 150 μL of 10% TCA and incubated at 4 °C for 1 h. The TCA solution was removed, and the cells were washed 5 times with distilled water. Aliquots of 70 μL SRB solution (0.4% w/v) were added and incubated in a dark place at room temperature for 10 min. The plates were washed 3 times with 1% acetic acid and allowed to air-dry overnight. Then, 150 μL of TRIS (10 mM) was added to dissolve protein-bound SRB stain. The absorbance was measured at 540 nm.% Cytotoxicity = [1 − (AVx/AVNC)] × 100where AVx denotes the average absorbance of the sample well and AVNC denotes the average absorbance of the negative control.
The methodology of the NCI anticancer screening has been described in details at (http://www.dtp.nci.nih.gov). The anticancer assay was performed in full NCI 60 cell lines derived from nine tumor subpanels, including leukemia, lung, colon, CNS, melanoma, ovarian, renal, prostate, and breast cancer cell lines.
The cell lines were first cultured for 48 h, after being exposed to a single dosage of the compound. Using the protein-binding dye sulforhodamine B dye, cell proliferation and viability were evaluated (SRB assay). The results were presented for each chemical as GI%. Compound that met NCI criteria for substantial activity were further evaluated using a five-dose experiment. The NCI60 cell lines were treated with the chemicals in this assay at five different concentration levels (0.01, 0.1, 1, 10, and 100 μM).

| SMILES | inhibition at 10 µM (CCRF-CEM (leukemia)) | inhibition at 10 µM (HL-60(TB) (leukemia)) | inhibition at 10 µM (K-562 (leukemia)) | inhibition at 10 µM [1] | inhibition at 10 µM [2] | inhibition at 10 µM [3] | inhibition at 10 µM [4] | inhibition at 10 µM [5] | inhibition at 10 µM [6] | inhibition at 10 µM (HCT-15 (colon cancer)) | inhibition at 10 µM (SF-268 (CNS cancer)) | inhibition at 10 µM (SF-539 (CNS cancer)) | inhibition at 10 µM (SNB-19 (CNS cancer)) | inhibition at 10 µM (U251 (CNS cancer)) | inhibition at 10 µM (MDA-MB-435 (melanoma)) | inhibition at 10 µM (SK-MEL-2 (melanoma)) | inhibition at 10 µM (SK-MEL-5 (melanoma)) | inhibition at 10 µM (UACC-62 (melanoma)) | inhibition at 10 µM (OVCAR-4 (ovarian cancer)) | inhibition at 10 µM (OVCAR-5 (ovarian cancer)) | also measured |
| --- | --- | --- | --- | --- | --- | --- | --- | --- | --- | --- | --- | --- | --- | --- | --- | --- | --- | --- | --- | --- | --- |
| CCc1cccc2cc(C3C=C(c4ccc(OC)c(OC)c4)NC(=S)N3)c(Cl)nc12 (stereo not drawn) [Compound 6b, 4-(2-Chloro-8-ethylquinolin-3-yl)-6-(3,4-dimethoxyphenyl)-3,4-dihydropyrimidine-2(1H)-thione] | 11% | 10.7% | 10.5% | < 10% | 11% | < 10% | < 10% | < 10% | 22.1% | < 10% | 16.6% | < 10% | < 10% | < 10% | < 10% | < 10% | 14.1% | 10.3% | 19.9% | < 10% | inhibition at 10 µM (OVCAR-8 (ovarian cancer)): < 10%; inhibition at 10 µM (SK-OV-3 (ovarian cancer)): < 10%; inhibition at 10 µM (ACHN (renal cancer)): < 10%; inhibition at 10 µM (RXF 393 (renal cancer)): < 10%; inhibition at 10 µM (UO-31 (renal cancer)): 37.2%; inhibition at 10 µM (MCF7 (breast cancer)): 15.7%; inhibition at 10 µM (HS 578T (breast cancer)): 12.9%; inhibition at 10 µM (BT-549 (breast cancer)): 12.8%; inhibition at 10 µM (T-47D (breast cancer)): 24.9%; inhibition at 10 µM [7]: 13.2% |
| CCc1cccc2cc(-c3cc(-c4ccc(OC)cc4)[nH]c(=O)c3C#N)c(Cl)nc12 [Compound 4a, 4-(2-Chloro-8-ethylquinolin-3-yl)-6-(4-methoxyphenyl)-2-oxo-1,2-dihydropyridine-3-carbonitrile] | < 10% | < 10% | 19.9% | < 10% | < 10% | < 10% | < 10% | < 10% | 11.9% | < 10% | 21.4% | < 10% | < 10% | < 10% | < 10% | < 10% | 13.9% | < 10% | 21.9% | < 10% | inhibition at 10 µM (OVCAR-8 (ovarian cancer)): < 10%; inhibition at 10 µM (SK-OV-3 (ovarian cancer)): < 10%; inhibition at 10 µM (ACHN (renal cancer)): < 10%; inhibition at 10 µM (RXF 393 (renal cancer)): < 10%; inhibition at 10 µM (UO-31 (renal cancer)): < 10%; inhibition at 10 µM (MCF7 (breast cancer)): 16%; inhibition at 10 µM (HS 578T (breast cancer)): 14.9%; inhibition at 10 µM (BT-549 (breast cancer)): 15.3%; inhibition at 10 µM (T-47D (breast cancer)): 17.1%; inhibition at 10 µM [7]: 14% |
| CCc1cccc2cc(C=CC(=O)c3ccc(OC)cc3)c(Cl)nc12 [Compound 3a, 3-(2-Chloro-8-ethylquinolin-3-yl)-1-(4-methoxyphenyl)prop-2-en-1-one] | 26.9% | 45.8% | < 10% | < 10% | < 10% | < 10% | < 10% | < 10% | 21.1% | < 10% | < 10% | 18.9% | < 10% | 17.9% | < 10% | < 10% | < 10% | 17.1% | 13.5% | < 10% | inhibition at 10 µM (OVCAR-8 (ovarian cancer)): < 10%; inhibition at 10 µM (SK-OV-3 (ovarian cancer)): < 10%; inhibition at 10 µM (ACHN (renal cancer)): < 10%; inhibition at 10 µM (RXF 393 (renal cancer)): 23.8%; inhibition at 10 µM (UO-31 (renal cancer)): < 10%; inhibition at 10 µM (MCF7 (breast cancer)): 18%; inhibition at 10 µM (HS 578T (breast cancer)): < 10%; inhibition at 10 µM (BT-549 (breast cancer)): 22.5%; inhibition at 10 µM (T-47D (breast cancer)): 44%; inhibition at 10 µM [7]: < 10% |
